According to patent US12194294B2, “Oral drug delivery devices and methods using iontophoresis” (The Regents of the University of California, priority 2019, dated 2025):
Entries after “also recorded” stand apart in the source; their conditions may differ. Where two headings read alike, the source gives them in different places.

Tests used:
Caco-2 cells [1] = experiment: TEER measurement of tight junction integrity in Caco-2 monolayers during FITC-insulin transport study; format: cell-based, human; details: for TEER decrease: within 15 min
Procedure: Transport experiments were carried out in triplicates and at least 3 transwells were used per trial for each group. Before the start of the experiment, the existing medium in the transwell was replaced with phenol red, FBS and P/S free DMEM in both the apical (200 μl) and basolateral side (600 μl) and the cells were incubated for 30 min. […] This was performed at 0.25, 0.5, 1, 2, 3 and 5 h. A 50 μA electric current was applied to the cells during the first hour of the study for a period of 10 min, followed by a 10 min recovery period and this was repeated another two times. At the end of 1 h (total 30 min iontophoresis), the transwell plates were kept inside an incubator at 37° C., 5% CO2 and only taken out to remove 100 μl aliquots from the basolateral side followed by replacement with same volume fresh medium at the aforementioned time periods. […] TEER was measured at every time point when aliquots were withdrawn from the transwells.

non-diabetic rats = experiment: In vivo intestinal iontophoresis using insulin mucoadhesive patches: blood glucose; design: species or system rat
Procedure: Insulin mucoadhesive patches were prepared as described in Banerjee, et al., “Intestinal Mucoadhesive Devices for Oral Delivery of Insulin,” Bioeng. Transl. Med. 1, 338-346 (2016). […] About 110 mg of the mixture was pressed at 3-ton pressure using a hydraulic press into a patch. The patches were then cut into 5×3 mm (length×breadth) sized rectangular smaller patches. One side of the patch was completely covered with aluminum foil using minimal amount of super glue placed at one corner of the foil. Wires with a small section of their protective insulation removed were then stuck on the aluminum foil using super glue. Care was taken not to cover the entire wire placed over the foil with super glue. The exposed wire sticking on to the patches were then taped with an electrical insulating tape to prevent any loss of current in vivo through exposed wire.
Intestinal iontophoresis was carried out using a 6 V battery connected to the intestine. A potentiometer and an ammeter were used in the electrical circuit to accurately control and measure the electric current. Given that the identified safe threshold for iontophoresis is 0.5 mA/cm^2, the electrical parameters were selected in order to perform the studies using a safe current density of 0.33 mA/cm^2 (Singh, et. al., “Transdermal drug delivery by passive diffusion and iontophoresis: a review,” Med Res Rev., 13(5):569-621 (1993)). For the experiment, the rats were fasted overnight but given free access to water. Prior to the start of intestinal iontophoresis, the rats were anesthetized, a portion of abdomen prepped for surgery and an incision was made in the area to expose the intestine. Experiments were conducted using sterile instruments and following good surgical practices. […] Thereafter current (45-50 μA) was allowed to flow for 1.5 minutes followed by 3.5 minutes of recovery time for 1 h, amounting to a total 18 min of iontophoresis. After 1 h, the patches were left in place but the wires were disconnected from the battery and cut close to the inserted patches. The intestinal incisions with the patches left in place were stitched, the intestine put back into the abdomen and the muscle and skin sutured. Blood glucose was determined at the start of the study and at every 0.5 h till the end of study at 3 h. The rats were kept anesthetized until the end of experiment. Afterwards, the animals were euthanized and the intestinal sections in and around the patches were dissected for further histological examination to determine morphological changes, if any, due to iontophoresis.
Control experiments with no electric current were conducted similarly.
About 110 mg of the mixture was pressed at 3-ton pressure using a hydraulic press into a patch. The patches were then cut into 5×3 mm (length×breadth) sized rectangular smaller patches. One side of the patch was completely covered with aluminum foil using minimal amount of super glue placed at one corner of the foil. Wires with a small section of their protective insulation removed were then stuck on the aluminum foil using super glue. Care was taken not to cover the entire wire placed over the foil with super glue. The exposed wire sticking on to the patches were then taped with an electrical insulating tape to prevent any loss of current in vivo through exposed wire.
The circuit for in vivo experiments was set up as illustrated in FIG. 3. Intestinal iontophoresis was carried out using a 6 V battery connected to the intestine. A potentiometer and an ammeter were used in the electrical circuit to accurately control and measure the electric current. Given that the identified safe threshold for iontophoresis is 0.5 mA/cm2, the electrical parameters were selected in order to perform the studies using a safe current density of 0.33 mA/cm2 [8]. For the experiment, the rats were fasted overnight but given free access to water. […]

Caco-2 cells [2] = experiment: Confocal microscopy of FITC-insulin uptake by Caco-2 cells; format: cell-based, human; details: cells exposed to electric current compared to control wells
Procedure: On the next day, the transwells were washed with HBSS and the membrane cut out and placed in glass slides. Mounting media with DAPI was added to the membranes and covered with glass slides. Confocal imaging was performed using Olympus Fluoview 1000 Spectral Confocal instrument at 60× magnification.
On the next day, the transwells were washed with HBSS and the membrane cut out and placed in glass slides. Mounting media with DAPI was added to the membranes and covered with glass slides. Confocal imaging was performed using Olympus Fluoview 1000™ Spectral Confocal instrument at 60× magnification.

Caco-2 monolayers = details: for FITC-insulin transported across the cells: end of 5 h; for Papp of FITC-insulin across the cells: in 5 h
Procedure: (§1) Caco-2 human intestinal epithelial cells (passages #5-10) were cultured in DMEM containing 10% v/v FBS and 1% v/v P/S and seeded in 24 well plate transwells at a density of 2×10^5 cells/ml. 200 μl DMEM with cells was placed in apical side while 600 μl cell free DMEM was placed in the basolateral side. The cells were allowed to grow for a period of 18-21 days and medium replaced with fresh DMEM every other day.
(§2) To maintain sterile conditions, all in vitro experiments including circuit set up were done under aseptic conditions in a biosafety cabinet. A 6 V battery was used to supply electrical current to transwells containing Caco-2 monolayer. The higher potential of the battery was connected to the basolateral side of the transwell while the lower potential of the battery connected to the apical side while taking care not to touch the transwell membranes with Caco-2 cell monolayer. The current applied to the cell was monitored by an ammeter and its value was adjusted to 50 μA using a potentiometer. Three different branches, each attached to an ammeter, potentiometer and transwell were connected in parallel across the battery to enable three different measurements at a time.
Transport experiments were carried out in triplicates and at least 3 transwells were used per trial for each group. Before the start of the experiment, the existing medium in the transwell was replaced with phenol red, FBS and P/S free DMEM in both the apical (200 μl) and basolateral side (600 μl) and the cells were incubated for 30 minutes. […] This was performed at 0.25, 0.5, 1, 2, 3 and 5 h. A 50 μA electrical current was applied to the cells during the first hour of the study for a period of 10 min, followed by 10 min recovery period and this was repeated another two times. At the end of 1 h (total 30 minutes iontophoresis), the transwell plates were kept inside an incubator at 37° C., 5% CO2 and only taken out to remove 100 μl aliquots from the basolateral side followed by replacement with same volume fresh medium at the aforementioned time periods. […] TEER was measured at every time point when aliquots were withdrawn from the transwells. Apparent permeability coefficient (Papp) was calculated using the equation (Brown, et al., “Dermal and transdermal drug delivery systems: current and future prospects,” Drug Deliv. 13(3):175-87 (2006)):
The transport enhancement ratio (ER) was calculated using the equation (Brown, et al., 2006): […]
as §1
as §2, with “the battery was connected to” for “the battery connected to”, “a potentiometer. […]” for “a potentiometer. Three different branches, each attached to an ammeter, potentiometer and transwell were connected in parallel across the battery to enable three different measurements at a time.”

[3] = control (no current) wells, 2 h
[4] = control (no current) wells, 3 h
[5] = 1 U/kg, subcutaneously injected, 1.5 h
[6] = 1 U/kg, subcutaneously injected, 3 h

## Human Insulin
Caco-2 cells [1]; at the end at 5 hours
  difference in TEER between control and electric current group: no significant difference
Caco-2 cells [1]; electric current, 2 h
  TEER drop of initial levels: 35%
non-diabetic rats; 50 U/kg patch in intestine, 45-50 μA current, 3 h
  drop in blood glucose levels: 63%
non-diabetic rats; patches with iontophoresis, rats, up to 3 h
  hypoglycemia: severely hypoglycemic

## fluorescein isothiocyanate (FITC)-insulin [FITC-insulin]
Caco-2 cells [2]
  uptake of FITC-insulin by cells (confocal images): presence of higher FITC-insulin; also recorded: higher uptake
Caco-2 cells [2]; listed as FITCmsulin
  uptake of FITC-insulin by cells (confocal images): higher uptake
Caco-2 cells [1]; [3]
  TEER reduction of initial levels: around 9%
  TEER, % of initial levels: 91.2±1.1%
Caco-2 cells [1]; [4]
  TEER reduction of initial levels: ~4%
  TEER, % of initial levels: 95.6±6.5%
Caco-2 cells [1]; control group
  TEER decrease: no specific decrease
Caco-2 cells [1]; electric current, 2 h
  TEER drop of initial levels: 35%
  TEER, % of initial levels: 65.7±3.8%
Caco-2 cells [1]; electric current
  TEER decrease: 10%
Caco-2 monolayers; control group (no current)
  FITC-insulin transported across the cells: about 5.5 μg
Caco-2 monolayers; electric current applied (50 μA)
  FITC-insulin transported across the cells: approximately 14.1 μg
Caco-2 monolayers; from 2 hours onwards
  insulin transport across the cells, electric current vs control: significantly higher
Caco-2 monolayers; without electricity
  Papp of FITC-insulin across the cells: 0.99 ×10⁻⁶ cm/s
Caco-2 monolayers; without electricity (Example 3)
  Papp of FITC-insulin across the cells: 0.99 ×10⁻⁶ cm/s

## insulin solution: insulin solution injected intra-intestinally (50 U/kg) or subcutaneously (1 U/kg) as comparison
non-diabetic rats; [5]
  blood glucose, % of initial levels: 57.9±4.1%
  maximum drop in blood glucose levels: 42%
non-diabetic rats; [6]
  blood glucose drop after recovery: about 17%
  blood glucose, % of initial levels: 83.3±2.6%
non-diabetic rats; 50 U/kg, intra-intestinally injected
  drop in blood glucose levels with time: did not show any drop
